Laboratory results: patent publication US20260347338A1, “PYRIMIDINE/PYRIDINE DERIVATIVES OR SALTS THEREOF AND PHARMACEUTICAL COMPOSITIONS COMPRISING THE SAME” (YUHAN CORPORATION, priority 2023, published 2026)
Structures can show the parent of a compound that is named as a salt.

Target: T1, human recombinant HPK1 (Homo sapiens, UniProt Q92918)
T1 construct: purchased BPS Bioscience
Test: Inhibitory activity against human recombinant HPK1 (TR-FRET)
Format: biochemical
Details: ULight-p70S6K peptide, ATP at Km, room temperature, 1 hour, 0.32 to 1000 nM compound
How it was run: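 IC50 classes A–D use 10, 50 and 100 nM cut-offs, derived from TR-FRET signal inhibition relative to DMSO controls. Human recombinant HPK1 phosphorylated ULight-p70S6K peptide at Km ATP for 1 h, room temperature, pH 7.4; test range 0.32–1000 nM final, detection with Eu-labelled antibody after EDTA quench.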

T1 sequence (Q92918 whole entry): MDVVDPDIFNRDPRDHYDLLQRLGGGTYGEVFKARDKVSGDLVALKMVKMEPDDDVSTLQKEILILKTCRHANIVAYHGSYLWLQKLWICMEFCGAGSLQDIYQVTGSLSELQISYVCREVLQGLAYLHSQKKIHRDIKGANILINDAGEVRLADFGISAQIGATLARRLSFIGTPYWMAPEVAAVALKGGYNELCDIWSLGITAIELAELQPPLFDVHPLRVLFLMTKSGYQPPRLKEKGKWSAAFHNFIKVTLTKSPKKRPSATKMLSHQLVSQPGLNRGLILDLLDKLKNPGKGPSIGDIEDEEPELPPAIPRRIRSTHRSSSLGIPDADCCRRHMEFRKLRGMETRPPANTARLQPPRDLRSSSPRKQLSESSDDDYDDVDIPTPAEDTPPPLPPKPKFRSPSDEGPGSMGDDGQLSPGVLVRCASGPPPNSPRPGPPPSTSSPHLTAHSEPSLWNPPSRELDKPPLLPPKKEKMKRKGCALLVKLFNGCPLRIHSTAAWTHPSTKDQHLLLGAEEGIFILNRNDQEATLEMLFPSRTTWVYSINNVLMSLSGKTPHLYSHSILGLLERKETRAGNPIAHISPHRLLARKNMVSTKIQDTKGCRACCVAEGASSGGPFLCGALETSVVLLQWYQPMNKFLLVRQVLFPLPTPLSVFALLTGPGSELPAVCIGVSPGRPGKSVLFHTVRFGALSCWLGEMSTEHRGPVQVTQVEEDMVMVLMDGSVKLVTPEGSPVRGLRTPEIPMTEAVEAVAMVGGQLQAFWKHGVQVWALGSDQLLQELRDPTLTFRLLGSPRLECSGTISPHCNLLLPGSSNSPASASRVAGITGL

Compound | IC50
COc1cccc(F)c1-c1nccc(Nc2cc(N3CCC[C@H](N)C3)c(-c3ccc(N4CCOCC4)nc3)cn2)n1 [Example 121, (S)-4-(3-aminopiperidin-1-yl)-N-(2-(2-fluoro-6-methoxyphenyl)pyrimidin-4-yl)-6′-morpholino-[3,3′-bipyridin]-6-amine hydrochloride] | ≤ 10 nM
COc1cccc(F)c1-c1nc(Nc2cc(N3CC[C@@H](N)[C@H](O)C3)c(-c3cnn(C(F)F)c3)cn2)ccc1C#N [Example 326, 6-((4-((3R,4R)-4-amino-3-hydroxypiperidin-1-yl)-5-(1-(difluoromethyl)-1H-pyrazol-4-yl)pyridin-2-yl)amino)-2-(2-fluoro-6-methoxyphenyl)nicotinonitrile] | ≤ 10 nM
(S)-N-(4-(3-aminopiperidin-1-yl)-5-((tetrahydro-2H-pyran-4-yl)ethynyl)pyridin-2-yl)-2-(7-fluoroquinoxalin-6-yl)pyrimidin-4-amine hydrochloride [Example 90] | ≤ 10 nM
COc1cccc(F)c1-c1nc(Nc2cc(N3CCC[C@H](N)C3)c(-c3cnn(C(F)F)c3)cn2)ccc1S(C)(=O)=O [Example 315, 4-((S)-3-aminopiperidin-1-yl)-5-(1-(difluoromethyl)-1H-pyrazol-4-yl)-N-(6-(2-fluoro-6-methoxyphenyl)-5-(methylsulfonyl)pyridin-2-yl)pyridin-2-amine hydrochloride] | ≤ 10 nM
COc1cc(F)cc(F)c1-c1nc(Nc2cc(N3CCC[C@H](O)C3)c(-c3cnn(CC(F)F)c3)cn2)ccc1[N+](=O)[O-] [Example 223, (3S)-1-(2-((6-(2,4-difluoro-6-methoxyphenyl)-5-nitropyridin-2-yl)amino)-5-(1-(2,2-difluoroethyl)-1H-pyrazol-4-yl)pyridin-4-yl)piperidin-3-ol] | ≤ 10 nM
COc1cc(CO)cc(F)c1-c1nccc(Nc2cc(N3CCC[C@H](N)C3)c(-c3cnn(C(F)F)c3)cn2)n1 [Example 101, (S)-(4-(4-((4-(3-aminopiperidin-1-yl)-5-(1-(difluoromethyl)-1H-pyrazol-4-yl)pyridin-2-yl)amino)pyrimidin-2-yl)-3-fluoro-5-methoxyphenyl)methanol hydrochloride] | ≤ 10 nM
COc1cccc(F)c1-c1nccc(Nc2cc(N3CCC[C@H](N)C3)c(-c3cc(C)c(OC)c(C)c3)cn2)n1 [Example 285, (S)-N-(4-(3-aminopiperidin-1-yl)-5-(4-methoxy-3,5-dimethylphenyl)pyridin-2-yl)-2-(2-fluoro-6-methoxyphenyl)pyrimidin-4-amine hydrochloride] | ≤ 10 nM
COc1cccc(F)c1-c1nccc(Nc2cc(N3CCC[C@H](O)C3)c(-c3ccc(CN4CCC(N(C)C)C4)nc3)cn2)n1 (stereo partly drawn) [Example 48, (3S)-1-(6′-((3-(dimethylamino)pyrrolidin-1-yl)methyl)-6-((2-(2-fluoro-6-methoxyphenyl)pyrimidin-4-yl)amino)-[3,3′-bipyridin]-4-yl)piperidin-3-ol] | ≤ 10 nM
COc1cccc(F)c1-c1nccc(Nc2cc(N3CCC[C@H](N)C3)c(-c3cnc4c(c3)CCC(=O)N4)cn2)n1 [Example 276, (S)-6-(4-(3-aminopiperidin-1-yl)-6-((2-(2-fluoro-6-methoxyphenyl)pyrimidin-4-yl)amino)pyridin-3-yl)-3,4-dihydro-1,8-naphthyridin-2(1H)-one hydrochloride] | ≤ 10 nM
COc1cc(C(=O)N2CC[C@@H](F)C2)cc(F)c1-c1nccc(Nc2cc(N3CCC[C@H](O)C3)c(-c3cnn(C(F)F)c3)cn2)n1 [Example 233, (4-(4-((5-(1-(difluoromethyl)-1H-pyrazol-4-yl)-4-((S)-3-hydroxypiperidin-1-yl)pyridin-2-yl)amino)pyrimidin-2-yl)-3-fluoro-5-methoxyphenyl)((R)-3-fluoropyrrolidin-1-yl)methanone] | ≤ 10 nM
COc1cc(F)cc(F)c1-c1nc(Nc2cc(N3CCC[C@H](O)C3)c(-c3cnn(CC(F)F)c3)cn2)ccc1N [Example 226, (3S)-1-(2-((5-amino-6-(2,4-difluoro-6-methoxyphenyl)pyridin-2-yl)amino)-5-(1-(2,2-difluoroethyl)-1H-pyrazol-4-yl)pyridin-4-yl)piperidin-3-ol] | ≤ 10 nM
COc1cc(CO)cc(F)c1-c1nccc(Nc2cc(N3CCC[C@H](O)C3)c(-c3cnn(C4CCOCC4)c3)cn2)n1 [Example 161, (S)-1-(2-((2-(2-fluoro-4-(hydroxymethyl)-6-methoxyphenyl)pyrimidin-4-yl)amino)-5-(1-(tetrahydro-2H-pyran-4-yl)-1H-pyrazol-4-yl)pyridin-4-yl)piperidin-3-ol] | ≤ 10 nM
COc1cccc(F)c1-c1nc(Nc2cc(N3CCC[C@H](O)C3)c(-c3cnn(C4CCOCC4)c3)cn2)ccc1N [Example 177, (3S)-1-(2-((5-amino-6-(2-fluoro-6-methoxyphenyl)pyridin-2-yl)amino)-5-(1-(tetrahydro-2H-pyran-4-yl)-1H-pyrazol-4-yl)pyridin-4-yl)piperidin-3-ol] | ≤ 10 nM
COc1cccc(F)c1-c1nccc(Nc2cc(N3CCC(CCN(C)C)CC3)c(-c3ccc(N4CCOCC4)nc3)cn2)n1 [Example 149, 4-(4-(2-(dimethylamino)ethyl)piperidin-1-yl)-N-(2-(2-fluoro-6-methoxyphenyl)pyrimidin-4-yl)-6′-morpholino-[3,3′-bipyridin]-6-amine] | ≤ 10 nM
COCCCn1cc(-c2cnc(Nc3ccnc(-c4c(F)cccc4OC)n3)cc2N2CCC[C@H](N)C2)cn1 [Example 116, (S)-N-(4-(3-aminopiperidin-1-yl)-5-(1-(3-methoxypropyl)-1H-pyrazol-4-yl)pyridin-2-yl)-2-(2-fluoro-6-methoxyphenyl)pyrimidin-4-amine hydrochloride] | ≤ 10 nM
COc1cccc(F)c1-c1nccc(Nc2cc(N3CCC[C@H](O)C3)c(-c3ccc(CN4CCC(O)C4)nc3)cn2)n1 (stereo partly drawn) [Example 43, (3S)-1-(6-((2-(2-fluoro-6-methoxyphenyl)pyrimidin-4-yl)amino)-6′-((3-hydroxypyrrolidin-1-yl)methyl)-[3,3′-bipyridin]-4-yl)piperidin-3-ol] | ≤ 10 nM
COc1cccc(F)c1-c1nc(Nc2cc(N3CCC[C@H](O)C3)c(C(N)=O)cn2)ccc1[N+](=O)[O-] [Example 191, 6-((6-(2-fluoro-6-methoxyphenyl)-5-nitropyridin-2-yl)amino)-4-((S)-3-hydroxypiperidin-1-yl)nicotinamide] | ≤ 10 nM
COc1cccc(F)c1-c1nccc(Nc2cc(N3CCC(C)(CO)C3)c(-c3cnn(C4CCOCC4)c3)cn2)n1 (centres unmarked) [Example 45, (1-(2-((2-(2-fluoro-6-methoxyphenyl)pyrimidin-4-yl)amino)-5-(1-(tetrahydro-2H-pyran-4-yl)-1H-pyrazol-4-yl)pyridin-4-yl)-3-methylpyrrolidin-3-yl)methanol] | > 100 nM
COc1cccc(F)c1-c1nccc(Nc2cc(N3CCC[C@H](N)C3)c(-c3cnn(CCC(N)=O)c3)cn2)n1 [Example 167, (S)-3-(4-(4-(3-aminopiperidin-1-yl)-6-((2-(2-fluoro-6-methoxyphenyl)pyrimidin-4-yl)amino)pyridin-3-yl)-1H-pyrazol-1-yl)propanamide hydrochloride] | ≤ 10 nM
COc1cccc(F)c1-c1nccc(Nc2cc(N3CCC[C@H](N)C3)c(-c3cnn(C4CNC4)c3)cn2)n1 [Example 168, (S)-N-(4-(3-aminopiperidin-1-yl)-5-(1-(azetidin-3-yl)-1H-pyrazol-4-yl)pyridin-2-yl)-2-(2-fluoro-6-methoxyphenyl)pyrimidin-4-amine hydrochloride] | ≤ 10 nM
COC(=O)C(C)(C)n1cc(-c2cnc(Nc3ccnc(-c4c(F)cccc4OC)n3)cc2N2CCC[C@H](N)C2)cn1 [Example 278, methyl (S)-2-(4-(4-(3-aminopiperidin-1-yl)-6-((2-(2-fluoro-6-methoxyphenyl)pyrimidin-4-yl)amino)pyridin-3-yl)-1H-pyrazol-1-yl)-2-methylpropanoate hydrochloride] | ≤ 10 nM
COc1cc(C=O)cc(F)c1-c1nccc(Nc2cc(N3CCC[C@H](O)C3)c(-c3cnn(C4CCOCC4)c3)cn2)n1 [Example 189, (S)-3-fluoro-4-(4-((4-(3-hydroxypiperidin-1-yl)-5-(1-(tetrahydro-2H-pyran-4-yl)-1H-pyrazol-4-yl)pyridin-2-yl)amino)pyrimidin-2-yl)-5-methoxybenzaldehyde] | ≤ 10 nM
COc1cccc(F)c1-c1nccc(Nc2cc(N3CCC[C@H](N)C3)c(-c3ccc(N4CCCC4=O)cc3)cn2)n1 [Example 259, (S)-1-(4-(4-(3-aminopiperidin-1-yl)-6-((2-(2-fluoro-6-methoxyphenyl)pyrimidin-4-yl)amino)pyridin-3-yl)phenyl)pyrrolidin-2-one hydrochloride] | ≤ 10 nM
COc1cccc(F)c1-c1nccc(Nc2cc(N3CC[C@H](N)[C@H](C)C3)c(-c3cnn(C(F)F)c3)cn2)n1 [Example 297, N-(4-((3R,4S)-4-amino-3-methylpiperidin-1-yl)-5-(1-(difluoromethyl)-1H-pyrazol-4-yl)pyridin-2-yl)-2-(2-fluoro-6-methoxyphenyl)pyrimidin-4-amine hydrochloride] | ≤ 10 nM
COc1cc(F)cc(F)c1-c1nc(Nc2cc(N3CCC[C@H](O)C3)c(CCC3CCOCC3)cn2)ccc1N [Example 228, (3S)-1-(2-((5-amino-6-(2,4-difluoro-6-methoxyphenyl)pyridin-2-yl)amino)-5-(2-(tetrahydro-2H-pyran-4-yl)ethyl)pyridin-4-yl)piperidin-3-ol] | 10 to 50 nM
COc1cccc(F)c1-c1nccc(Nc2cc(N(C)C3CCC(O)CC3)c(-c3cnn(C(F)F)c3)cn2)n1 [Example 214, (1S,4S)-4-((5-(1-(difluoromethyl)-1H-pyrazol-4-yl)-2-((2-(2-fluoro-6-methoxyphenyl)pyrimidin-4-yl)amino)pyridin-4-yl)(methyl)amino)cyclohexan-1-ol] | ≤ 10 nM
